Measurements from doi:10.1101/2025.04.25.650653, “Hierarchical small molecule inhibition of MYST acetyltransferases” (bioRxiv, 2025).
Several values for one entry are separate records, joined by “and”; a condition that tells them apart may be missing. Equal entries are not always repeated.

Test system: histone modifications in MCF-7 cells
Experiment: Histone modification analysis by bottom-up LC-MS/MS
Type: cell-based
Settings: for Ratio, H2A1_12_17 unmod / Ratio, H2A3_12_17 K15me1: MCF-7; for Ratio, H3_3_8 K4me1 / Ratio, H3_3_8 unmod / Ratio, H3_54_63 unmod / Ratio, H3_41_49 unmod: Replicates 1-3
Source text: In this approach. […] Histones are then extracted from cell pellets and chemically derivatized with propionic anhydride, digested with trypsin, subjected to a second round of propionylation, and analyzed by LC-MS/MS. Measuring the relative intensity of modified versus unmodified forms of individual histone peptides enables simultaneous monitoring of multiple potential biomarkers of MYST inhibition. To minimize false positives, we focused on abundant and reproducible modifications (average stoichiometry of greater than 1% across triplicate samples, standard deviation less than or equal to the average measurement). To account for potential histone modification crosstalk, changes in both acetylated and methylated peptides were evaluated. 38 modified peptides passed this reproducible detection threshold including several established KAT biomarkers[41] including H3K9Ac (KAT2A/B), H3K18Ac (KAT3A/B), H3K14Ac (KAT7), H3K23Ac (KAT6A/B), H4K16Ac (KAT8), and H2A.ZK4/K7Ac (KAT5; Fig. 4B).
Histone modification analysis
MCF-7 cells were cultured at 37 °C under 5% CO2 in EMEM (Quality Biological, 112-016-101) with 0.01 mg/mL human recombinant insulin (Sigma Aldrich, 91077C), 2 mM L-glutamine (Quality Biological, 118- […]
human recombinant insulin.
1119, WM-3835). Following 24 h inhibitor treatment, cells were washed with ice-cold 1× PBS and scraped in 150 µL of Nuclear Isolation Buffer (NIB) containing 0.1% NP-40 for histone extraction using a modified protocol from the Garcia laboratory. 9 Briefly, cell suspensions were incubated on ice for 5 minutes, and […]
nuclei were pelleted by centrifugation (600 rcf, 4°C, 5 min). Pelleted nuclei were washed twice with 150 μL of detergent-free NIB buffer, followed by centrifugation (600 rcf, 4°C, 5 min) to remove all detergent.
Nuclei were then resuspended in 400 μL of 0.4 N H₂SO₄ and rotated at 4°C overnight for acid extraction of histones. The following day, samples were centrifuged (11,000 rcf, 4°C, 10 min) and the histone-containing supernatant was transferred to a fresh tube. Trichloroacetic acid (100% TCA) was added to achieve a final concentration of 20% (v/v), tubes were inverted once to mix, and histone precipitation was performed on ice for at least 3 hours or overnight at 4°C. Precipitated histones were collected by centrifugation (11,000 rcf, 4°C, 10 min) and the supernatant carefully removed, leaving a visible film of histones on the tube wall or bottom. Histone pellets were subjected to sequential washes with 1 mL of ice-cold acidified acetone (0.1% 12 N HCl) followed by 1 mL of 100% ice-cold acetone, with centrifugation (11,000 rcf, 4°C, 5 min) after each wash. Samples were air-dried at room temperature, resuspended in 40 µL of ddH₂O, and protein […]
analysis, 1-2 µg of purified histones were loaded per lane and processed according to the general immunoblotting protocol described in General Materials and Methods.
Analysis of histone modifications by LC-MS/MS
Preparation of histone samples for LC-MS/MS was performed analogously to the procedure for immunoblotting above, with the following modifications. MCF7 cells (4.2 × 106) were seeded in 15 cm dishes and treated with PF-9363 or vehicle. Experiments were performed in triplicate. Following treatment and PBS washing, cells were scraped and collected in 15 mL falcon tubes, pelleted (500 rcf, 4°C, 5 min), resuspended in 1 mL cold PBS, transferred to microcentrifuge tubes, and pelleted again before flash-freezing in liquid nitrogen for storage at -80°C. For extraction, cell pellets (~100 μL) were resuspended in NIB buffer at a 1:10 ratio, and cells were lysed with NIB buffer containing 0.2% NP-40 for 8 minutes on ice. Nuclei were pelleted at 1,000 rcf for 8 minutes and washed three times with 500 μL detergent-free NIB buffer. Histones were extracted using 800 μL of 0.2 M H₂SO₄, and after centrifugation (3,400 rcf, 4°C, 10

[1] = TKQTAR(H3_3_8), PF-9363 0.1 v 30
[2] = TKQTAR(H3_3_8), PF-9363 (0.1 mM)
[3] = TKQTAR(H3_3_8), PF-9363 (30 mM)

Structure (SMILES): COc1cccc(OC)c1S(=O)(=O)Nc1noc2cc(Cn3cccn3)cc(OC)c12 [PF-9363]
- Ratio, H2A1_12_17 unmod (Replicate 2, PF-9363 30): 0.4993
- Ratio, H2A3_12_17 K15me1 (Replicate 2, PF-9363 30): 0.4897
- Ratio, H2A1_12_17 unmod (Replicate 3, PF-9363 0.1): 0.4868
- Ratio, H2A3_12_17 K15me1 (Replicate 3, PF-9363 0.1): 0.466
- Ratio, H2A1_12_17 unmod (Replicate 3, PF-9363 1): 0.5044
- Ratio, H2A3_12_17 K15me1 (Replicate 3, PF-9363 1): 0.4869
- Ratio, H2A1_12_17 unmod (Replicate 3, PF-9363 10): 0.4939
- Ratio, H2A3_12_17 K15me1 (Replicate 3, PF-9363 10): 0.4755
- Ratio, H2A1_12_17 unmod (Replicate 3, PF-9363 30): 0.5006
- Ratio, H2A3_12_17 K15me1 (Replicate 3, PF-9363 30): 0.4892
- Fold-change 0.1 v 30, H3_3_8 K4me1 [1]: 1.02
- Fold-change 0.1 v 30, H3_3_8 unmod [1]: 1.00
- Average ratio, H3_3_8 K4me1 [2]: 0.0973
- Average ratio, H3_3_8 unmod [2]: 0.8963
- Average ratio, H3_3_8 K4me1 [3]: 0.0953
- Average ratio, H3_3_8 unmod [3]: 0.8973
- Ratio, H3_3_8 K4me1 (TKQTAR(H3_3_8), dose 0.1): 0.09461 and 0.103 and 0.09428
- Ratio, H3_3_8 unmod (TKQTAR(H3_3_8), dose 0.1): 0.9002 and 0.8874 and 0.9011
- Ratio, H3_3_8 K4me1 (TKQTAR(H3_3_8), dose 1): 0.09313 and 0.09156 and 0.09495
- Ratio, H3_3_8 unmod (TKQTAR(H3_3_8), dose 1): 0.903 and 0.9014 and 0.9006
- Ratio, H3_3_8 K4me1 (TKQTAR(H3_3_8), dose 10): 0.1087 and 0.09351 and 0.1018
- Ratio, H3_3_8 unmod (TKQTAR(H3_3_8), dose 10): 0.8856 and 0.9033 and 0.8936
- Ratio, H3_3_8 K4me1 (TKQTAR(H3_3_8), dose 30): 0.09818 and 0.09712 and 0.09049
- Ratio, H3_3_8 unmod (TKQTAR(H3_3_8), dose 30): 0.8954 and 0.8931 and 0.9034
- Fold-change 0.1 v 30, H3_54_63 unmod (YQKSTELLIR(H3_54_63), PF-9363 0.1 v 30): 0.99
- Average ratio, H3_54_63 unmod (YQKSTELLIR(H3_54_63), PF-9363 (0.1 mM)): 0.9888
- Average ratio, H3_54_63 unmod (YQKSTELLIR(H3_54_63), PF-9363 (30 mM)): 0.9942
- Ratio, H3_54_63 unmod (YQKSTELLIR(H3_54_63), dose 0.1): 0.9974 and 0.9808 and 0.9881
- Ratio, H3_54_63 unmod (YQKSTELLIR(H3_54_63), dose 1): 0.9878 and 0.9887 and 0.9945
- Ratio, H3_54_63 unmod (YQKSTELLIR(H3_54_63), dose 10): 0.9895 and 0 and 0.9781
- Ratio, H3_54_63 unmod (YQKSTELLIR(H3_54_63), dose 30): 0.9962 and 0.9919 and 0.9944
- Fold-change 0.1 v 30, H3_41_49 unmod (YRPGTVALR(H3_41_49), PF-9363 0.1 v 30): 1.00
- Average ratio, H3_41_49 unmod (YRPGTVALR(H3_41_49), PF-9363 (0.1 mM)): 0.9999
- Average ratio, H3_41_49 unmod (YRPGTVALR(H3_41_49), PF-9363 (30 mM)): 0.9999
- Ratio, H3_41_49 unmod (YRPGTVALR(H3_41_49), dose 0.1): 0.9999 and 1 and 0.9998
- Ratio, H3_41_49 unmod (YRPGTVALR(H3_41_49), dose 1): 0.9993 and 1 and 0.9999
- Ratio, H3_41_49 unmod (YRPGTVALR(H3_41_49), dose 10): 0.9997 and 1 and 0.9999
- Ratio, H3_41_49 unmod (YRPGTVALR(H3_41_49), dose 30): 1 (2×) and 0.9996
- Fold-change 0.1 v 30, H2A1_1_11 K5ac (average ratio 0.1 v 30): 0.99
- Fold-change 0.1 v 30, H2A1_4_11 K5ac (average ratio 0.1 v 30): 0.88
- Fold-change 0.1 v 30, H2A1_4_11 K9ac (average ratio 0.1 v 30): 1.17
- Fold-change 0.1 v 30, H2A1_4_11 unmod (average ratio 0.1 v 30): 0.99
- Fold-change 0.1 v 30, H2A1_36_42 unmod (average ratio 0.1 v 30): 1.00
- Fold-change 0.1 v 30, H2A3_36_42 unmod (average ratio 0.1 v 30): 1.00
- Fold-change 0.1 v 30, H2AJ_4_11 K5acK9ac (average ratio 0.1 v 30): 0.98
- Fold-change 0.1 v 30, H2AV_1_19 K4ac (average ratio 0.1 v 30): 0.98
- Fold-change 0.1 v 30, H2AV_1_19 unmod (average ratio 0.1 v 30): 1.14
- Fold-change 0.1 v 30, H2AX_36_42 unmod (average ratio 0.1 v 30): 1.00
- Fold-change 0.1 v 30, H2AZ_1_19 K11ac (average ratio 0.1 v 30): 0.64
- Fold-change 0.1 v 30, H2AZ_1_19 unmod (average ratio 0.1 v 30): 0.92
- Fold-change 0.1 v 30, H3_73_83 K79me1 (average ratio 0.1 v 30): 1.08
- Fold-change 0.1 v 30, H3_73_83 K79me2 (average ratio 0.1 v 30): 1.32
- Fold-change 0.1 v 30, H3_73_83 unmod (average ratio 0.1 v 30): 0.97
- Fold-change 0.1 v 30, H4_4_17 K12acK16ac (average ratio 0.1 v 30): 0.05
- Fold-change 0.1 v 30, H4_4_17 unmod (average ratio 0.1 v 30): 1.46
- Fold-change 0.1 v 30, H4_20_23 K20me1 (average ratio 0.1 v 30): 1.30
- Fold-change 0.1 v 30, H4_20_23 unmod (average ratio 0.1 v 30): 1.38
